Experimental data published in patent US10106536B2, “Imidazo(4,5-B) pyridin-2-yl amides as KV7 channel activators” (Knopp Biosciences LLC, priority 2013, dated 2018).

The molecules below were run against T1, Kv7.2/7.3 (Homo sapiens, UniProt O43525+O43526) (assay: Kv7.2/7.3 activation assay, QPatch planar patch-clamp, single concentration screen). Conditions: compound 3 μM; Kv7.2/Kv7.3 co-expressing HEK cells; steady-state current at end of 1 s pulse to −30 mV.
T1 construct: host or cells: HEK cells, tetracycline-inducible expression
Type: cell-based
Description: Kv7.2/7.3 Activation Assay
The ability of compounds to potentiate K-currents in KV7.2/7.3 containing HEK cells was assessed using planar patch-clamp on the QPatch automated screening platform.
The hKV7.2/7.3 cell line was obtained from Chantest (Cleveland, Ohio 44128) cat.# CT6147. These HEK cells will express the Kv7.2/7.3 ion channels when induced.
Cell Culture: Cells were maintained in a media containing DMEM/F12; 50/50 (GIBCO cat.#11330), 10% Fetal Bovine Serum (FBS) (GIBCO cat.#26140), 100 units/mL Penicillin-Streptomycin (GIBCO cat.#15140), 0.005 mg/mL Blasticidin (INVIVOGEN cat.# ant-bl-1), 0.5 mg/mL Geneticin (GIBCO cat.#10131), 0.1 mg/mL Zeocin (GIBCO cat.# R25001). Cells used in the electrophysiology assay were maintained in a media without Blasticidin, Geneticin and Zeocin for 2 days and channel expression was induced by adding tetracycline (BIOLINE cat.# BIO-87030) at a final concentration of […]. Cells were grown in T-175 flask to ˜75% confluency. Currents were recorded 24 hours after channel induction.
Test compounds were prepared by performing serial dilutions on a Biomek NX^P (BECKMAN COULTER). Final dilutions were made in external recording solution with a final DMSO concentration of 0.1% DMSO. For single concentration screens each plate had 10 μM retigabine as a positive control and 0.1% DMSO as a negative control.
On the day of the experiment cells were washed with Hank's Balanced Salt Solution (HBBS) (GIBCO cat.#14175) and harvested with Tryple (GIBCO cat.#12604). Cells were then centrifuged at 2000 rpm for 5 minutes and resuspended in CHO-S-SFM (GIBCO cat.#12052) at ˜3×10^6 cells/mL. Cells were stirred for 30 minutes before experiments were started. External recording solution contained (in mM): NaCl (145), KCl (4), CaCl2 (2), MgCl2 (1), HEPES (10) and Glucose (10); pH was adjusted to 7.4 with NaOH and the osmolarity was adjusted to 300-305 mOsM with sucrose if necessary. Internal solution contained (in mM): KCl (125), KF (10), EGTA (5), Na2ATP (5), MgCl2 (3.2), HEPES (5); pH was adjusted to 7.2 with KOH and the osmolarity was adjusted to 298-302 mOsM with sucrose.
Potassium channel activity was measured on the QPatch HTX (Sophion Bioscience) using QPlates with 48-wells/plate. Each cell was taken as an independent experiment and only one compound was tested per well. Potassium channel activity was elicited by holding at −80 mV and stepping to −30 mV for 1 s followed by a 100 ms pulse to −120 mV.
Baseline conditions were obtained by recording 5 sweeps in the external solution only, this was repeated for three applications of the external solution. The effect of test compounds on elicited current was then assessed by recording 5 sweeps in the presence of a 3 μM or 10 μM compound solution. The steady-state current at the end of the 1 s pulse to −30 mV was measured to determine the fold increase from baseline.

Row | Kv7.2/7.3 Activity at 3 μM (increase in current over baseline) | SMILES
1 | − (<1.2-fold increase over baseline (−)) | O=C(CC(C(F)(F)F)C(F)(F)F)Nc1nc2ccc(Cl)nc2n1C1CCC1 [Example 6, N-(5-chloro-3-cyclobutyl-3H-imidazo[4,5-b]pyridin-2-yl)-4,4,4-trifluoro-3-(trifluoromethyl)butanamide]
2 | − (<1.2-fold increase over baseline (−)) | O=C(Cc1ccc(F)cc1)Nc1nc2cc(Cl)cnc2n1C1CCC1 [Example 58, N-(6-chloro-3-cyclobutyl-3H-imidazo[4,5-b]pyridin-2-yl)-2-(4-fluorophenyl)acetamide]
3 | − (<1.2-fold increase over baseline (−)) | CC(C)(C)CC(=O)Nc1nc2ccc(-c3cccnc3)nc2n1C1CCC1.Cl [Example 151, N-(3-cyclobutyl-5-(pyridin-3-yl)-3H-imidazo[4,5-b]pyridin-2-yl)-3,3-dimethylbutanamide hydrochloride]
4 | − (<1.2-fold increase over baseline (−)) | O=C(CCC1(C(F)(F)F)CC1)Nc1nc2ccc(Cl)nc2n1C1CCC1 [Example 223, N-(5-chloro-3-cyclobutyl-3H-imidazo[4,5-b]pyridin-2-yl)-3-(1-(trifluoromethyl)cyclopropyl)propanamide]

Row | SMILES | Kv7.2/7.3 Activity at 3 μM (increase in current over baseline)
5 | CC1(C)[C@H]2CC[C@@H](CC(=O)Nc3nc4cccnc4n3C3CCC3)[C@@H]1C2 [Example 24, N-(3-cyclobutyl-3H-imidazo[4,5-b]pyridin-2-yl)-2-((1S,2S,5S)-6,6-dimethylbicyclo[3.1.1]heptan-2-yl)acetamide] | +++ (>6-fold increase over baseline (+++))
6 | CC(C)(C)OCCC(=O)Nc1nc2ccc(C3CC3)nc2n1CC(F)(F)F [Example 108, 3-(tert-butoxy)-N-(5-cyclopropyl-3-(2,2,2-trifluoroethyl)-3H-imidazo[4,5-b]pyridin-2-yl)propanamide] | +++ (>6-fold increase over baseline (+++))

Same assay, conditions: compound 10 μM; Kv7.2/Kv7.3 co-expressing HEK cells; steady-state current at end of 1 s pulse to −30 mV

Row | SMILES | Kv7.2/7.3 Activity at 10 μM (increase in current over baseline)
7 | CC(C)(C)OCCC(=O)Nc1nc2cccnc2n1C1CCC1 [Example 3, 3-(tert-butoxy)-N-(3-cyclobutyl-3H-imidazo[4,5-b]pyridin-2-yl)propanamide] | +++ (>6-fold increase over baseline (+++))
8 | O=C(CC1CC2CCC1C2)Nc1nc2ccc(Cl)nc2n1C1CCC1 (centres unmarked) [Example 9, 2-(bicyclo[2.2.1]heptan-2-yl)-N-(5-chloro-3-cyclobutyl-3H-imidazo[4,5-b]pyridin-2-yl)acetamide] | +++ (>6-fold increase over baseline (+++))
9 | CC1(C)[C@H]2CC[C@@H](CC(=O)Nc3nc4cccnc4n3C3CCC3)[C@@H]1C2 [Example 24, N-(3-cyclobutyl-3H-imidazo[4,5-b]pyridin-2-yl)-2-((1S,2S,5S)-6,6-dimethylbicyclo[3.1.1]heptan-2-yl)acetamide] | +++ (>6-fold increase over baseline (+++))
10 | O=C(CCC1CCCC1)Nc1nc2ccc(Cl)nc2n1C1CCC1 [Example 27, N-(5-chloro-3-cyclobutyl-3H-imidazo[4,5-b]pyridin-2-yl)-3-cyclopentylpropanamide] | +++ (>6-fold increase over baseline (+++))
11 | CC(C)CC(=O)Nc1nc2ccc(Cl)nc2n1C1CCC1 [Example 28, N-(5-chloro-3-cyclobutyl-3H-imidazo[4,5-b]pyridin-2-yl)-3-methylbutanamide] | +++ (>6-fold increase over baseline (+++))
12 | O=C(CC1CCCCC1)Nc1nc2ccc(Cl)nc2n1C1CCC1 [Example 29, N-(5-chloro-3-cyclobutyl-3H-imidazo[4,5-b]pyridin-2-yl)-2-cyclohexylacetamide] | +++ (>6-fold increase over baseline (+++))
13 | CC1(C)[C@H]2CC[C@@H](CC(=O)Nc3nc4ccc(Cl)nc4n3C3CCC3)[C@@H]1C2 [Example 33, N-(5-chloro-3-cyclobutyl-3H-imidazo[4,5-b]pyridin-2-yl)-2-((1S,2S,5S)-6,6-dimethylbicyclo[3.1.1]heptan-2-yl)acetamide] | +++ (>6-fold increase over baseline (+++))
14 | CCOCC(=O)Nc1nc2ccc(Cl)nc2n1C1CCC1 [Example 34, N-(5-chloro-3-cyclobutyl-3H-imidazo[4,5-b]pyridin-2-yl)-2-ethoxyacetamide] | − (<1.2-fold increase over baseline (−))
15 | O=C(CCc1ccccc1)Nc1nc2ccc(Cl)nc2n1C1CCC1 [Example 35, N-(5-chloro-3-cyclobutyl-3H-imidazo[4,5-b]pyridin-2-yl)-3-phenylpropanamide] | +++ (>6-fold increase over baseline (+++))
16 | CC(C)Cn1c(NC(=O)CC(C)(C)C)nc2ccc(Cl)nc21 [Example 36, N-(5-chloro-3-isobutyl-3H-imidazo[4,5-b]pyridin-2-yl)-3,3-dimethylbutanamide] | +++ (>6-fold increase over baseline (+++))
17 | CC(C)(C)CC(=O)Nc1nc2ccc(C(F)(F)F)nc2n1C1CCC1 [Example 39, N-(3-cyclobutyl-5-(trifluoromethyl)-3H-imidazo[4,5-b]pyridin-2-yl)-3,3-dimethylbutanamide] | +++ (>6-fold increase over baseline (+++))
18 | CC(C)CC(=O)Nc1nc2ccc(C(F)(F)F)nc2n1C1CCC1 [Example 42, N-(3-cyclobutyl-5-(trifluoromethyl)-3H-imidazo[4,5-b]pyridin-2-yl)-3-methylbutanamide] | +++ (>6-fold increase over baseline (+++))
19 | O=C(CC1CCCCC1)Nc1nc2ccc(C(F)(F)F)nc2n1C1CCC1 [Example 43, N-(3-cyclobutyl-5-(trifluoromethyl)-3H-imidazo[4,5-b]pyridin-2-yl)-2-cyclohexylacetamide] | +++ (>6-fold increase over baseline (+++))
20 | CC1(C)[C@H]2CC[C@@H](CC(=O)Nc3nc4ccc(C(F)(F)F)nc4n3C3CCC3)[C@@H]1C2 [Example 47, N-(3-cyclobutyl-5-(trifluoromethyl)-3H-imidazo[4,5-b]pyridin-2-yl)-2-((1S,2S,5S)-6,6-dimethylbicyclo[3.1.1]heptan-2-yl)acetamide] | +++ (>6-fold increase over baseline (+++))
21 | O=C(CCOC1CCCC1)Nc1nc2ccc(C(F)(F)F)nc2n1C1CCC1 [Example 91, N-(3-cyclobutyl-5-(trifluoromethyl)-3H-imidazo[4,5-b]pyridin-2-yl)-3-(cyclopentyloxy)propanamide] | +++ (>6-fold increase over baseline (+++))
22 | CC1(C)CCC(CC(=O)Nc2nc3ccc(C(F)(F)F)nc3n2C2CCC2)O1 (centres unmarked) [Example 96, N-(3-cyclobutyl-5-(trifluoromethyl)-3H-imidazo[4,5-b]pyridin-2-yl)-2-(5,5-dimethyltetrahydrofuran-2-yl)acetamide] | +++ (>6-fold increase over baseline (+++))
23 | CC(C)(C)CC(=O)Nc1nc2ccc(Cl)nc2n1-c1ccc(F)cc1 [Example 105, N-(5-chloro-3-(4-fluorophenyl)-3H-imidazo[4,5-b]pyridin-2-yl)-3,3-dimethylbutanamide] | +++ (>6-fold increase over baseline (+++))
24 | CC(C)Oc1ccc2nc(NC(=O)CCOC(C)(C)C)n(CC(F)(F)F)c2n1 [Example 120, 3-(tert-butoxy)-N-(5-isopropoxy-3-(2,2,2-trifluoroethyl)-3H-imidazo[4,5-b]pyridin-2-yl)propanamide] | +++ (>6-fold increase over baseline (+++))
25 | O=C(CCC1CCOC1)Nc1nc2ccc(C(F)(F)F)nc2n1C1CCC1 (centres unmarked) [Example 124, N-(3-cyclobutyl-5-(trifluoromethyl)-3H-imidazo[4,5-b]pyridin-2-yl)-3-(tetrahydrofuran-3-yl)propanamide] | +++ (>6-fold increase over baseline (+++))
26 | Cc1ccc2nc(NC(=O)CCOC(C)(C)C)n(CC(F)(F)F)c2n1 [Example 132, 3-(tert-butoxy)-N-(5-methyl-3-(2,2,2-trifluoroethyl)-3H-imidazo[4,5-b]pyridin-2-yl)propanamide] | +++ (>6-fold increase over baseline (+++))
